From ChEMBL document CHEMBL1909046, “DrugMatrix in vitro pharmacology data”

Experiments:
[1] = DRUGMATRIX: ATPase, Na+/K+ enzyme inhibition (substrate: ATP); format: tissue-based, Sus scrofa, Heart; conditions: Not Active = under 50% inhibition at 10 µM
[2] = DRUGMATRIX: Glutamate, NMDA, Agonism radioligand binding (ligand: [3H] CGP-39653); format: cell membranes, Rattus norvegicus, Wistar, Cerebral cortex, Membrane; conditions: Not Active = under 50% inhibition at 10 µM
[3] = target: T1, Nitric oxide synthase, inducible (Mus musculus, UniProt P29477); set-up: species or system Escherichia coli;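 further: inhibition of iNOS enzyme activity measured with L-arginine as substrate; in other assays of this panel Not Active means under 50% inhibition at 10 µM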
T1 sequence (P29477 whole entry): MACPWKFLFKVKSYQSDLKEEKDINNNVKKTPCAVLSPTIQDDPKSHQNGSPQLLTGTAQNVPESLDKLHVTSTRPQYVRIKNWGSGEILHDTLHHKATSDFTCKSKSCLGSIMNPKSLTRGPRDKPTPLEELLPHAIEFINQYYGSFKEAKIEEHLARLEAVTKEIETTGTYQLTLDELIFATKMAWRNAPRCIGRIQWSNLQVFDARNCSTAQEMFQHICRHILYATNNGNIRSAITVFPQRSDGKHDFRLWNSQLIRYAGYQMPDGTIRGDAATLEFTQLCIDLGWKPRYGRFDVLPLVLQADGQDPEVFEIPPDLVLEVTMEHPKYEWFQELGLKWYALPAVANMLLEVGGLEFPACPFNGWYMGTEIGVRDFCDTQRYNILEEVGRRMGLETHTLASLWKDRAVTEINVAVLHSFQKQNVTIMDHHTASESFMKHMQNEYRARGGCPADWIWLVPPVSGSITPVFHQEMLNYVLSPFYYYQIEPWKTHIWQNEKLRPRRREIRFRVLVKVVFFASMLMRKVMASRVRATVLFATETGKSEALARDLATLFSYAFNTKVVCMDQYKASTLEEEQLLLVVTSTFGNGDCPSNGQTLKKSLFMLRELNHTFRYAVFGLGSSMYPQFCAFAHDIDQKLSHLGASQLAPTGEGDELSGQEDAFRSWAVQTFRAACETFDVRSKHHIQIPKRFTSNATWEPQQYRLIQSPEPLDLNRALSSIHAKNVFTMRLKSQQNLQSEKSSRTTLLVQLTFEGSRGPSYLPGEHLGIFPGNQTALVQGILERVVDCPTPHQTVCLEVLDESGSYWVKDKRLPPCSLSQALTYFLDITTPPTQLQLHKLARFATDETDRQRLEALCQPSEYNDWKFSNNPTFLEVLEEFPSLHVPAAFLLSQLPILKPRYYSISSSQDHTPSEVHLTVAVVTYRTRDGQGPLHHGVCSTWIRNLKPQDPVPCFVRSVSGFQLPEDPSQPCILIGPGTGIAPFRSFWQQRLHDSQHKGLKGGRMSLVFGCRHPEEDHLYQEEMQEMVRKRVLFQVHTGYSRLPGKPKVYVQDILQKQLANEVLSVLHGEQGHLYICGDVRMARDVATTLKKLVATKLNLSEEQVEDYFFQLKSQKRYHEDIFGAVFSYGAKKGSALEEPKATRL

[4] = target: T2, C-X-C chemokine receptor type 2 (Homo sapiens, UniProt P25025); format: cell membranes, CHO-K1, Membrane; conditions: cho-k1; further: in other assays of this panel Not Active means under 50% inhibition at 10 µM
T2 sequence (P25025 whole entry): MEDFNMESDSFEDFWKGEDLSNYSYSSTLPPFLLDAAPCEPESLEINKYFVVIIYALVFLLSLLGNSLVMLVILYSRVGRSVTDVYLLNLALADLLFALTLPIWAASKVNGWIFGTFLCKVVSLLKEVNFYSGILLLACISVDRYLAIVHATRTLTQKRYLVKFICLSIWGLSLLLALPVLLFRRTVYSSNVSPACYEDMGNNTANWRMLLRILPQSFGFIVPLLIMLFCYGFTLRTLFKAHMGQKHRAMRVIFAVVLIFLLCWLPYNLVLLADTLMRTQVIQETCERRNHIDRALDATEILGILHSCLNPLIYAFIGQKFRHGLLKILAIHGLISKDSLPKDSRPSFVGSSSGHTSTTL

[5] = DRUGMATRIX: Calcium Channel Type L, Phenylalkylamine radioligand binding (ligand: [3H] (-)-Desmethoxyverapamil (D-888)); format: cell membranes, Rattus norvegicus, Wistar, Brain, Membrane; conditions: Not Active = under 50% inhibition at 10 µM
[6] = DRUGMATRIX: Atrial Natriuretic Factor (ANF) radioligand binding (ligand: [125I] ANF (rat)); format: cell membranes, Cavia porcellus, Dunkin-Hartley, Adrenal gland, Membrane; conditions: Not Active = under 50% inhibition at 10 µM
[7] = target: Delta-type opioid receptor (Homo sapiens, UniProt P41143); format: cell membranes, HEK293, Membrane; further: in other assays of this panel Not Active means under 50% inhibition at 10 µM
Delta-type opioid receptor, sequence (P41143 whole entry): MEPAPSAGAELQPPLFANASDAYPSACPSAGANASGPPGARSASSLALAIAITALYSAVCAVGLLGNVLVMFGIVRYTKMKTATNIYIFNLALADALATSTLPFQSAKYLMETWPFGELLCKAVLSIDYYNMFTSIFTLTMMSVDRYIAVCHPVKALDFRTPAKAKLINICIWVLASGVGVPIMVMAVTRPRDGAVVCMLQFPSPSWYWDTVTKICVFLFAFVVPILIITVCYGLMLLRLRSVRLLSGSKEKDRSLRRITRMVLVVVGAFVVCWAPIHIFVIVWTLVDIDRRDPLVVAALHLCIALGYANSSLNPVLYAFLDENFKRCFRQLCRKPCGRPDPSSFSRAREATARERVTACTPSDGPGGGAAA

Molecule	IC50 [1]	Ki [1]	IC50 [2]	Ki [2]	IC50 [3]	IC50 [4]	IC50 [5]	Ki [5]	IC50 [6]	Ki [6]	IC50 ([7]; hek293)	IC50 ([7]; read-out: IC50)	Ki ([7]; read-out: Ki)	Ki [3]	Ki [4]	Ki ([7]; hek293)
O=C1c2ccccc2C(=O)C1c1ccccc1 [PHENINDIONE]	Not Active	Not Active	Not Active	Not Active	Not Active	Not Active	Not Active	Not Active	Not Active	Not Active	Not Active	–	–	–	–	–
Clc1cc(Cl)c(OCC#CI)cc1Cl [HALOPROGIN]	Not Active	Not Active	Not Active	Not Active	Not Active	Not Active	Not Active	Not Active	Not Active	Not Active	Not Active	–	–	–	–	–
C[C@H]1C[C@H]2[C@@H]3CCC4=CC(=O)C=C[C@]4(C)[C@@]3(F)[C@@H](O)C[C@]2(C)[C@@]1(O)C(=O)CO [BETAMETHASONE]	Not Active	Not Active	Not Active	Not Active	Not Active	Not Active	Not Active	Not Active	Not Active	Not Active	Not Active	–	–	–	–	–
COc1ccc(Cl)cc1C(=O)NCCc1ccc(S(=O)(=O)NC(=O)NC2CCCCC2)cc1 [GLYBURIDE]	Not Active	Not Active	Not Active	Not Active	Not Active	Not Active	Not Active	Not Active	Not Active	Not Active	Not Active	–	–	–	–	–
CC1(COc2ccc(CC3SC(=O)NC3=O)cc2)CCCCC1 (stereo unspecified) [CIGLITAZONE]	Not Active	Not Active	Not Active	Not Active	Not Active	Not Active	Not Active	Not Active	Not Active	Not Active	–	26.9 µM	9.48 µM	–	–	–
Cc1ccnc2c1NC(=O)c1cccnc1N2C1CC1 [NEVIRAPINE]	Not Active	Not Active	Not Active	Not Active	Not Active	Not Active	Not Active	Not Active	Not Active	Not Active	Not Active	–	–	–	–	–
CNC[C@H](O)c1ccc(O)c(O)c1 [EPINEPHRINE]	Not Active	Not Active	–	–	Not Active	Not Active	Not Active	Not Active	Not Active	Not Active	Not Active	–	–	–	–	–
CN(Cc1cc(Br)cc(Br)c1N)C1CCCCC1 [BROMHEXINE]	Not Active	Not Active	Not Active	Not Active	Not Active	Not Active	Not Active	Not Active	Not Active	Not Active	Not Active	–	–	–	–	–
COPPER(II) OXIDE	Not Active	Not Active	Not Active	Not Active	Not Active	Not Active	Not Active	Not Active	Not Active	Not Active	Not Active	–	–	Not Active	Not Active	Not Active
